This note sets out measurements from ChEMBL document CHEMBL1201862, “PubChem BioAssay data set” (2004).

SMILES strings stand for the structures. Activity calls are given as the source filed them. Some results are limits rather than exact numbers.

Assay [1] has as its target Photoreceptor-specific nuclear receptor (Homo sapiens, UniProt Q9Y5X4). It is filed as functional.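 Note: potency for compounds that break the NR2E3 corepressor complex and count as activators.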
Assay [2] concerns the target Peroxisome proliferator-activated receptor gamma/Nuclear receptor corepressor 2 (Homo sapiens, UniProt P37231+Q9Y618). It is filed as functional.
The target in assay [3] is T1, Heat shock factor protein 1 (Mus musculus, UniProt P38532).
T1 sequence (P38532 whole entry): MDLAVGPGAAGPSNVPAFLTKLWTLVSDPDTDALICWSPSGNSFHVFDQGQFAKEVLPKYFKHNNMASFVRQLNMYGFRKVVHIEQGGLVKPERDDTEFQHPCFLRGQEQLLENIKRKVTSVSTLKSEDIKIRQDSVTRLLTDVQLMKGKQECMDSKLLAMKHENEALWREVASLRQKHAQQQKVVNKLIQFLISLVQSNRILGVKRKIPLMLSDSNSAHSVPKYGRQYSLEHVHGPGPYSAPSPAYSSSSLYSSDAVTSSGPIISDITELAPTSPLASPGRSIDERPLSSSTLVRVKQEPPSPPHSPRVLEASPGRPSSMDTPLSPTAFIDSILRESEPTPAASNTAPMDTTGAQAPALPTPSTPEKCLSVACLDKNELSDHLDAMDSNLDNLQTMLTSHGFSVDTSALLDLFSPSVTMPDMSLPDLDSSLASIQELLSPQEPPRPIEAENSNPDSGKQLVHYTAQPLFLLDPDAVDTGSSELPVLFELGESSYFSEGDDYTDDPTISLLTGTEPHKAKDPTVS
As to the kind of experiment: enhancement of HSF1-driven luciferase signal – cell-based, NIH3T3, luminescence, dose retest, confirmation (AID 435004).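 Note: stress induced by proteasome inhibitor MG132 added 30 min after compound; luciferase reporter driven by HSF1 response element in NIH3T3 cells; actives raise luminescence as potentiators of the MG132 stress response.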 It is filed as functional.

In a further assay the target is Cytochrome P450 2C9 (Homo sapiens, UniProt P11712). The note with it: Potency.
A short description of assay [4]: Trypanosoma cruzi growth suppression in host cells – NIH3T3 host cells, beta-gal luminescence, confirmation (AID 2044).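 Note: intracellular parasites grown in NIH/3T3 mouse fibroblasts as host cells; luminescent beta-galactosidase reporter signal from transgenic T. cruzi replicating inside host cells; inhibitors lower the luminescence signal.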 Type of assay: functional, cell-based.
Assay [5] can be described thus: NIH3T3 cell viability loss – ATP luminescence, mouse fibroblasts, counter-screen, dose response (AID 2010).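 Note: cells exposed to compound for about 90 hours before reading.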 It is filed as functional, cell-based.
Assay [6] has as its target Neurotensin receptor type 1 (Homo sapiens, UniProt P30989). It is filed as functional.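 Note: Image-based confirmatory dose-response assay measuring agonist activity at NTR1; NTR1-expressing U2OS osteosarcoma cells imaged for beta-arrestin GFP spot formation; agonist potency where compounds increase beta-arrestin recruitment.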
The next assay deals with HeLa. As to the kind of experiment: viability loss in HeLa cells – cell-based, 24 h, cherry-picked samples, cytotoxicity control, dose response (AID 504726).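 Note: potency for cytotoxicity as loss of luminescence signal.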 It is filed as functional. The settings on record: Homo sapiens.
Another assay deals with Mucolipin-3 (Homo sapiens, UniProt Q8TDD5). Nature of the assay: Dose response cell-based high-throughput screening assay for agonists of the transient receptor potential channel ML3 (TRPML3). [Related pubchem assays: 1526, 1424, 1448 ]. It is filed as functional.
For assay [7], the target named is T2, Ion channel NompC (Danio rerio, UniProt Q7T1G6). Nature of the assay: Fluorescence counterscreen assay for TRPML3 agonists: dose response cell-based high-throughput screening assay to identify agonists of the transient receptor potential channel N1 (TRPN1). [Related pubchem assays: 1526, 1424, 1448 ]. Type of assay: functional.
Assay [8] has as its target T2, Ion channel NompC. Nature of the assay: activators of mucolipin-3 and mucolipin-2 – cell-based, […], Fura-2 profiling panel, panel member TRPN1 Dose Response (AID 2116).
The target of assay [9] is T3, Corticotropin-releasing factor receptor 2/Corticotropin-releasing factor-binding protein (Homo sapiens, UniProt P24387+Q13324).
T3 sequence (Q13324 whole entry): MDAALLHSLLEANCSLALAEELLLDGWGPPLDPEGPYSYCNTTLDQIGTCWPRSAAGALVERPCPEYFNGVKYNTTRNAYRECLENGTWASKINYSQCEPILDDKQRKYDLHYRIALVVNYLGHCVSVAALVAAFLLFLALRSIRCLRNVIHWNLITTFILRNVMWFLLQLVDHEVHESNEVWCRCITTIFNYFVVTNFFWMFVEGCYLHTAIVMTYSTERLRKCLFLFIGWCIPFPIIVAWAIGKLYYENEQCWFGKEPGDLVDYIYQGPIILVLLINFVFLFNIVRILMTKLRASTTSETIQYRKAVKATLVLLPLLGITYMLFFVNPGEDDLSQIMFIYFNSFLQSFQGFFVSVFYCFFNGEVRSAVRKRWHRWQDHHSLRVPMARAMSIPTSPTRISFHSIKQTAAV
T3 sequence (P24387 whole entry): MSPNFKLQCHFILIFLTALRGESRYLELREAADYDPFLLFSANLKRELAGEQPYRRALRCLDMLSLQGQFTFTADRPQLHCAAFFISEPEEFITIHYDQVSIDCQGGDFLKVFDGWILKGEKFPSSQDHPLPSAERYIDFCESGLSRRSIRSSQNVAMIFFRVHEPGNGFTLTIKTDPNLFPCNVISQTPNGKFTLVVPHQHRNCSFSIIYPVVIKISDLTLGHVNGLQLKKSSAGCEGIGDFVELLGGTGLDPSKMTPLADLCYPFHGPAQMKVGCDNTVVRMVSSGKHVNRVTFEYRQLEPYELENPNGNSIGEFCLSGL
Nature of the assay: activators of CRF receptor 2 with binding protein – uHTS hits, confirmation (AID 602473). The settings on record: read-out: EC50_Mean. It is filed as functional.

Assay [10] addresses Mothers against decapentaplegic homolog 3 (Homo sapiens, UniProt P84022). As to the kind of experiment: blockers of Smad3 complex formation in lysate – cell lysate, secondary confirmation, chemiluminescent ELISA, HEK293 lysate, dose response (AID 1058). Type of assay: functional.
Assay [11] deals with Melanin-concentrating hormone receptor 1 (Homo sapiens, UniProt Q99705). Nature of the assay: Late-stage fluorescence-based counterscreen for antagonists of the G-protein coupled receptor 7 (GPR7): cell-based dose response assay to identify antagonists of the melanin-concentrating hormone receptor 1 (MCHR1). [Related pubchem assays (depositor defined):AID1861, AID1880, AID1952, AID2148, AID2251, AID2257, AID485339]. Type of assay: functional.

In assay [12] the target is C-C chemokine receptor type 6 (Homo sapiens, UniProt P51684). Nature of the assay: antagonism of CCR6 beta-arrestin recruitment – cell-based, luminescent beta-arrestin readout, dose response (AID 504728). Type of assay: functional.
A further assay deals with Beta-galactosidase (Escherichia coli, UniProt Q8VNN2). As to the kind of experiment: detection-enzyme interference by beta-gal modulators – biochemical, E. coli enzyme, set 3, artefact control for CCR6 antagonist project, dose response (AID 504712). Type of assay: functional.
For assay [13], the target named is T4, Short transient receptor potential channel 4 (Mus musculus, UniProt Q9QUQ5).
T4 sequence (Q9QUQ5 whole entry): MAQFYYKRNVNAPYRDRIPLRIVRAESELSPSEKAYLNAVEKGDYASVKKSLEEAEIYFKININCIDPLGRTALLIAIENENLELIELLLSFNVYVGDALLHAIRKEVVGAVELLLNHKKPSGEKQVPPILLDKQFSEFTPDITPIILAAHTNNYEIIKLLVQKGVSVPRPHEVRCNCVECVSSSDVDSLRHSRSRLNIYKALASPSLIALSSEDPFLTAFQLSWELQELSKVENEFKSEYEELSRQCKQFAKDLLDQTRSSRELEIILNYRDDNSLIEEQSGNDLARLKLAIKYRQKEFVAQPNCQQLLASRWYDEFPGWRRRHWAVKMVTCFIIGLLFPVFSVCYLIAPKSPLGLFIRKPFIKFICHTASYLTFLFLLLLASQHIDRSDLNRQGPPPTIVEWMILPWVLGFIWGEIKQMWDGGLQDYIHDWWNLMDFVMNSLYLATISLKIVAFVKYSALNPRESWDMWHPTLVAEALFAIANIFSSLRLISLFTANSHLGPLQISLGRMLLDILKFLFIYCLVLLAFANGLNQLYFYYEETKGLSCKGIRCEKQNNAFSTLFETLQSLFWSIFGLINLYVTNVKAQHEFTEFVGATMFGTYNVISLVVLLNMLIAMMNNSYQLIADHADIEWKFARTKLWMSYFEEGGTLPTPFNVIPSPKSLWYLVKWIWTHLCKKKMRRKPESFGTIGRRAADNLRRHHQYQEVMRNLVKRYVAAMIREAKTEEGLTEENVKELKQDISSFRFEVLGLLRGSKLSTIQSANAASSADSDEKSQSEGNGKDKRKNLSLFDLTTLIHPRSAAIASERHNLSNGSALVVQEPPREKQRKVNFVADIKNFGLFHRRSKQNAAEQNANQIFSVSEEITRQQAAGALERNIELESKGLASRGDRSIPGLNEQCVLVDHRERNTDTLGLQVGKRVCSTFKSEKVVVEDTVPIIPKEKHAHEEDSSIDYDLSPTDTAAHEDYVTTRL
As to the kind of experiment: calcium entry via TRPC4 opening agents – cell-based, HEK293 TRPC4/mu-opioid, Fluo-4 calcium, dose response (AID 434937). It is filed as functional.

The target of assay [14] is Acyl-homoserine lactone acylase PvdQ (Pseudomonas aeruginosa (strain LESB58), UniProt Q9I194). As to the kind of experiment: PvdQ acylase enzyme activity blockers – biochemical, fluorescence, plate reader and imaging, cherry-picks, dose response (AID 493231).
For assay [15], the target named is G2/mitotic-specific cyclin-B1 (Homo sapiens, UniProt P14635). Nature of the assay: Counterscreen assay for inhibitors of Wee1 degradation: dose response cell-based assay to identify inhibitors of cyclin B degradation. [Related pubchem assays: 1410, 1321 ]. Type of assay: functional.
Assay [16] deals with BJ. Nature of the assay: BJ-TERT fibroblast viability loss – cell-based, RAS-independent, luminescence, dose response (AID 1933). The settings on record: Homo sapiens. It is filed as functional.
A further assay concerns the target Wee1-like protein kinase (Homo sapiens, UniProt P30291). As to the kind of experiment: Dose Response Cell-based Assay for Inhibitors of Wee1 Degradation. [Related pubchem assays: 1410, 1321 ]. Type of assay: functional.
Assay [17] has as its system BJ. As to the kind of experiment: cells. Type of assay: functional, cell-based. The note with it: Homo sapiens.
Assay [18] concerns BJ. Nature of the assay: BJ-TERT-LT-ST fibroblast viability loss – cell-based, RAS-independent, luminescence, dose response (AID 1935).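 Note: BJ fibroblasts immortalized with TERT plus LT and ST oncogenes.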 Type of assay: functional. The settings on record: Homo sapiens.
Assay [19] is described as follows: DRD fibroblast viability loss – cell-based, non-viral oncogenic, luminescence, dose response (AID 1934). It is filed as functional. The settings on record: Homo sapiens.
A short description of assay [20]: Luminescence Cell-Based Dose Retest to Confirm Inhibitors of Cancer Stem Cells. [Related pubchem assays (depositor defined):AID2717, AID2721]. The note with it: Homo sapiens. It is filed as functional.
Assay [21] concerns the target Metabotropic glutamate receptor 4 (Homo sapiens, UniProt Q14833). Nature of the assay: Modulation of the Metabotropic Glutamate Receptor mGluR4: Potency at human mGluR4. Modulation of intracellular Ca2+ using Fluo-4, AM, in CHO expressing recombinant receptor [Related pubchem assays (depositor defined):AID2437, AID2807]. It is filed as functional, cell-based.
In assay [22] the target is Metabotropic glutamate receptor 4 (Rattus norvegicus, UniProt P31423). As to the kind of experiment: Modulation of the Metabotropic Glutamate Receptor mGluR4: Rat PAM Potency. [Related pubchem assays (depositor defined):AID2437, AID2807]. Type of assay: functional.
Metabotropic glutamate receptor 4 (Rattus norvegicus, UniProt P31423), sequence (P31423 whole entry): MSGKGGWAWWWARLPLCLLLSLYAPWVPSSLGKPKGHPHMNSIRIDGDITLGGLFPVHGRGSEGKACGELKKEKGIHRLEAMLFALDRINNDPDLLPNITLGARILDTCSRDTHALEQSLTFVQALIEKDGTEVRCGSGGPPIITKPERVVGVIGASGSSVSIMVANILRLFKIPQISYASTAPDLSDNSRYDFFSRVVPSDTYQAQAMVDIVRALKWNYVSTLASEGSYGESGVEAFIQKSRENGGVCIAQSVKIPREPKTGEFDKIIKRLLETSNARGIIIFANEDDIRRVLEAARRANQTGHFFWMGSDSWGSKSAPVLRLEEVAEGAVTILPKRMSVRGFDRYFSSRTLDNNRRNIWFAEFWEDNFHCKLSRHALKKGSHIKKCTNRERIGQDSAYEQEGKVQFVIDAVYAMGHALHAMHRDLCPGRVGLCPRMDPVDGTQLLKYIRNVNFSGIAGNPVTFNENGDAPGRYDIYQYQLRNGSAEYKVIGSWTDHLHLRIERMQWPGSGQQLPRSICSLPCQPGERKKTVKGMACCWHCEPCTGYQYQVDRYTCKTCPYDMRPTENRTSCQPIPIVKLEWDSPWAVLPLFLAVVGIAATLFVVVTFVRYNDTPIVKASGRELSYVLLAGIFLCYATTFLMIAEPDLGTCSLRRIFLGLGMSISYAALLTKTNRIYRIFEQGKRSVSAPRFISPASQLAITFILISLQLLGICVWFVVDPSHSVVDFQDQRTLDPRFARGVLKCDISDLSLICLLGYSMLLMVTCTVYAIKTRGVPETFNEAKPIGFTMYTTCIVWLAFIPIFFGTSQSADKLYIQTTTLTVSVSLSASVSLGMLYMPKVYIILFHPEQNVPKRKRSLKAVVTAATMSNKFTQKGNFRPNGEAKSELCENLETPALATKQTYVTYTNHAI

T2 sequence (Q7T1G6 whole entry): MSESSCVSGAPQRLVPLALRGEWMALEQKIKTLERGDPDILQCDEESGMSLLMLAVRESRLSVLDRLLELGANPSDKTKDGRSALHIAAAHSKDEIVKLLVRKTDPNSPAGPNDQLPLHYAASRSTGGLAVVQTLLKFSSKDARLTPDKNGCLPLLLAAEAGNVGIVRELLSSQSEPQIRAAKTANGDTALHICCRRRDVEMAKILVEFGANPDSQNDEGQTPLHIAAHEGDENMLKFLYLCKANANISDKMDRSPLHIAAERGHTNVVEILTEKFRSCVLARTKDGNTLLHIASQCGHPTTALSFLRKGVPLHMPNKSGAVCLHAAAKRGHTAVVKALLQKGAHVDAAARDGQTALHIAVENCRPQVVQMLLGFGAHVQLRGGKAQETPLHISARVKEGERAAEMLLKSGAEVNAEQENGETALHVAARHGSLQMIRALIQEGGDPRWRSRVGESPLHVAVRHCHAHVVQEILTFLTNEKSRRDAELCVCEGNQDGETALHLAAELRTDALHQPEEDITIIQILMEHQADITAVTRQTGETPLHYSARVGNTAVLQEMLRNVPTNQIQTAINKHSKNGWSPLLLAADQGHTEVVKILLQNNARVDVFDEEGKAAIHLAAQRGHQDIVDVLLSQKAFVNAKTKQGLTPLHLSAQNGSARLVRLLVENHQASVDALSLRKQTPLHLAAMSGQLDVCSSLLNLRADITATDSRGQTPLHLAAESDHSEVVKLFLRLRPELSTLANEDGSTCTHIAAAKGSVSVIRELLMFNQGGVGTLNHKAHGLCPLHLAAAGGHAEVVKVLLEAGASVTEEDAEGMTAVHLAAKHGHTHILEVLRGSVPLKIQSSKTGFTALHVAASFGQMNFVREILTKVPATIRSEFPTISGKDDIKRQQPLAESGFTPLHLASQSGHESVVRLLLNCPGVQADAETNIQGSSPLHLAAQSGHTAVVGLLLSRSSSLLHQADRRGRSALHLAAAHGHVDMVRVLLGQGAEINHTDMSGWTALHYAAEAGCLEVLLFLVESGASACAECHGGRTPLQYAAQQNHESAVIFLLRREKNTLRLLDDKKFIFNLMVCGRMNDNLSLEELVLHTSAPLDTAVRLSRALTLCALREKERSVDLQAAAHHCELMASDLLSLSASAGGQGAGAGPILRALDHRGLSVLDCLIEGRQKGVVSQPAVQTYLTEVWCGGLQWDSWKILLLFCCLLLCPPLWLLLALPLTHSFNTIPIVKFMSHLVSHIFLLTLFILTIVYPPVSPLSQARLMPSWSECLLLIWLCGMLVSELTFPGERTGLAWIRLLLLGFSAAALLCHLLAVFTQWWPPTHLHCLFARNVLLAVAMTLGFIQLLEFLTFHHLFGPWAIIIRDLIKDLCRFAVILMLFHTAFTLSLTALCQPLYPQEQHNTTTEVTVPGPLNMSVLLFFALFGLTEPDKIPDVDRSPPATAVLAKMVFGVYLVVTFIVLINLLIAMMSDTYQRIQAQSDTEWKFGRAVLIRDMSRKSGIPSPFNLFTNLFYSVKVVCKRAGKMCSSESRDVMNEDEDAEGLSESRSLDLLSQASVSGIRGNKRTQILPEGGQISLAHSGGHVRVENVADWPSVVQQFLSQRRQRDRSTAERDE
Acyl-homoserine lactone acylase PvdQ, sequence (Q9I194 24-193 limits assumed): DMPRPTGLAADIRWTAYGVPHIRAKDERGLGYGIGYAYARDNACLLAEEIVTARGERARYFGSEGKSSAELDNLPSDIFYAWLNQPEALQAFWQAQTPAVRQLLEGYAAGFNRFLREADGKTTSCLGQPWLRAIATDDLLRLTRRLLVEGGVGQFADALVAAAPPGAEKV
Acyl-homoserine lactone acylase PvdQ, sequence (Q9I194 217-762 limits assumed): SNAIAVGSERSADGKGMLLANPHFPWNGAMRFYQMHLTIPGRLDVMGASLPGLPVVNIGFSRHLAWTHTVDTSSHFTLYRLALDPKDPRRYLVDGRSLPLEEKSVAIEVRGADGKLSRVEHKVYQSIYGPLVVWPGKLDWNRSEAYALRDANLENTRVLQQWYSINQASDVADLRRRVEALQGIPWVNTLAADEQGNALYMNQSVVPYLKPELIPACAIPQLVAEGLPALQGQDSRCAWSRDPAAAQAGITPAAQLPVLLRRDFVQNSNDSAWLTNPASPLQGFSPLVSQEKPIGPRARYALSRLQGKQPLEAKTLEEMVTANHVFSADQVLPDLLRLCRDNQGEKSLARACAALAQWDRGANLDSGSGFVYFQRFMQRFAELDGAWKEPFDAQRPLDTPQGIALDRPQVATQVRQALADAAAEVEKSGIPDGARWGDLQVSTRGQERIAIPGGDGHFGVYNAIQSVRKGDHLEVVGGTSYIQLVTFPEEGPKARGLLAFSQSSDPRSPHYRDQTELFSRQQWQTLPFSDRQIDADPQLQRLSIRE
Mucolipin-3, sequence (Q8TDD5 whole entry): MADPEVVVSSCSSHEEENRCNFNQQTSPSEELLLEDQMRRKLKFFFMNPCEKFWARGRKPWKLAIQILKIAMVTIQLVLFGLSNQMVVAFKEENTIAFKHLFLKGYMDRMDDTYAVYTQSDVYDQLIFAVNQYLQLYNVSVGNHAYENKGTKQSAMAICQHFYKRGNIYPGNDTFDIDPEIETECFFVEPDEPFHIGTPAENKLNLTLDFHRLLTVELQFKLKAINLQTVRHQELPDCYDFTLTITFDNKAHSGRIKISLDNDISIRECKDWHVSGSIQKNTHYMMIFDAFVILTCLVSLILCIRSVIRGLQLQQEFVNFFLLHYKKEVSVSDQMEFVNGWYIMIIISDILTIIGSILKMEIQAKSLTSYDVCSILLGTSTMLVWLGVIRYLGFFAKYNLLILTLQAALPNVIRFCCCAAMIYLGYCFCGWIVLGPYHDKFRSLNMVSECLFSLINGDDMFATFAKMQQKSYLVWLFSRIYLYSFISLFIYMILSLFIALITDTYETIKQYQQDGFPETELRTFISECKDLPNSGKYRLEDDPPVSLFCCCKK
G2/mitotic-specific cyclin-B1, sequence (P14635 whole entry): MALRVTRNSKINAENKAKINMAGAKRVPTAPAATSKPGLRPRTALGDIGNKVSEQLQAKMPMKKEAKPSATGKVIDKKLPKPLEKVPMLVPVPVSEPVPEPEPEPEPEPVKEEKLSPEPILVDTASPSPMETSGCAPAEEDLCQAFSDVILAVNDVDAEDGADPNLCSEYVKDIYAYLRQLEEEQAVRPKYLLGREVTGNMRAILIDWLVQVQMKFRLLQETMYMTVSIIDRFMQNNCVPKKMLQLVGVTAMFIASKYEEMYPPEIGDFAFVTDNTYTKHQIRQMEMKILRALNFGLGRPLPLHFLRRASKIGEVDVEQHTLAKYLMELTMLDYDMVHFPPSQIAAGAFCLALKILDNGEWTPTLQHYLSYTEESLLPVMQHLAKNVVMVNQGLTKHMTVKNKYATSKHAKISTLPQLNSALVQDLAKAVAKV
Photoreceptor-specific nuclear receptor, sequence (Q9Y5X4 whole entry): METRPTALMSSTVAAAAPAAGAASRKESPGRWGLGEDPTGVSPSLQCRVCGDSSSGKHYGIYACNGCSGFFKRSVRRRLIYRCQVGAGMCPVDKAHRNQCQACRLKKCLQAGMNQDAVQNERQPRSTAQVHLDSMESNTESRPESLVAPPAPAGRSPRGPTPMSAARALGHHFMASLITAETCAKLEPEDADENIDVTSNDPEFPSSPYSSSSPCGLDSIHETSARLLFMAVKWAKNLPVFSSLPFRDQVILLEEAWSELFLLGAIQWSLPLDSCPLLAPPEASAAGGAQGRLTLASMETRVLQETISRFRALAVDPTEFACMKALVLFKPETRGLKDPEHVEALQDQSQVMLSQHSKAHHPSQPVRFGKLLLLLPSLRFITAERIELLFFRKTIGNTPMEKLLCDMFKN
Melanin-concentrating hormone receptor 1, sequence (Q99705 whole entry): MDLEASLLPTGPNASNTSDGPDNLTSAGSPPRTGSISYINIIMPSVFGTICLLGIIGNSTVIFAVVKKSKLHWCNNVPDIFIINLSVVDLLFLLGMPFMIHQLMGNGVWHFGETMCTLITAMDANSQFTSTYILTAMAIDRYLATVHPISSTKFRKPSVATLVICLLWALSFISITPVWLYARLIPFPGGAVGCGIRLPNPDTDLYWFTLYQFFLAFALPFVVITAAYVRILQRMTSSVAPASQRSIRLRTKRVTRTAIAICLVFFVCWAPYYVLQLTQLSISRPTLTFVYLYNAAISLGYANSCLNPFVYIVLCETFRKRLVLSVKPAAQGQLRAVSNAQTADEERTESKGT

With `COc1cc(C2C(C(=O)c3cc4ccccc4o3)=C(O)C(=O)N2c2cc(C)on2)cc(OC)c1OC` (configuration not stated), the figures for the half-inhibitory concentration (IC50) in [1] and in assay [2] were > 39.8 µM (not active) and 4.1 µM (active), respectively. For the same compound, the EC50 in assay [3] was > 260 µM (inactive).
For the compound `COC(=O)C12CC3(CCC4C5C(C(OCc6ccccc6)C41)C52)OCCO3` (configuration not stated), the half-maximal activity concentration (AC50) at Cytochrome P450 2C9 was 5.01 µM (inconclusive).
Take `O=C(Nc1ccc([N+](=O)[O-])cc1)Nc1ccc(N2CCOCC2)c2nonc12`: the EC50 in assay [4] is 3.77 µM (active); in [5], > 30 µM (not active); in [6], > 40 µM (inactive).
For the compound `O=c1c2ccccc2nc(/C=C\c2ccccc2[N+](=O)[O-])n1-c1ccccc1O`, the AC50 with HeLa is 94.2 µM (active).
Regarding `O=S(=O)(NC1CCCCC1N1CCOCC1)c1ccc(Cl)cc1` (configuration not stated), the EC50 was 0.823 µM (active) on Mucolipin-3, > 29.9 µM (not active) on Ion channel NompC [7], 14 µM (inactive) on Ion channel NompC [8] and 13.7 µM (active) in assay [9].
Turning to `COc1cccc(C(c2cc3c(cc2O)OCO3)N2CCN(C(c3cc4c(cc3O)OCO4)c3cccc(OC)c3O)CC2)c1O` (configuration not stated), the concentration for half-maximal inhibition (IC50) in assay [10] is reported as > 40 µM (not active).
As to `COc1ccc(Oc2c(Cl)cnn(-c3cccc(C(F)(F)F)c3)c2=O)cc1`, in assay [11], the IC50 was 2.6 µM (active).
As for `CN(C)C(CNc1ccc(C(F)(F)F)cn1)c1ccccc1` (configuration not stated), the IC50 (in assay [12]; on Beta-galactosidase) was > 66.6 µM (inactive) throughout. The EC50 in assay [13] was 2.11 µM (active).
For the compound `N#CC(OC(=O)c1ccccc1)c1cccc([N+](=O)[O-])c1` (configuration not stated), the AC50 in assay [14] is 7.45 µM (active).
For `Cc1ccc(/C=N/NC(=O)c2ccc3c(c2)OCCO3)s1`, the EC50 was > 49.7 µM (not active) in assay [15]; 12.4 µM (active) in the assay on BJ [16]; > 49.7 µM (not active) on Wee1-like protein kinase; 140 µM (active) with BJ [17]; > 150 µM (inconclusive) in the assay with BJ [18]; 17.9 µM (active) in assay [19]. Also, the AC50 in assay [20] is 1.48 µM (active).
Regarding `O=C(Nc1ccc(Cl)c(Cl)c1)c1ccno1`, the EC50 in assay [21] is 11.8 µM (active); in assay [22], 11.1 µM (active).
